Earlier results in US20190269662A1, “SOLID COMPOSITIONS OF ACTIVES, PROCESSES FOR PREPARING SAME AND USES OF SUCH SOLID COMPOSITIONS” (The University of Liverpool, priority 2018, published 2019).

Details: background statement; cited from earlier work

Cc1nnc(C(C)C)n1[C@@H]1C[C@H]2CC[C@@H](C1)N2CC[C@H](NC(=O)C1CCC(F)(F)CC1)c1ccccc1 [maraviroc]
oral bioavailability: approximately 33%
